Measurements published in article PMC4890124, “Antimicrobial activity, improved cell selectivity and mode of action of short PMAP-36-derived peptides against bacteria and Candida” (Scientific Reports, 2016).
In brackets after ≈: the same amount, converted by molar mass. Marks after values point to notes of the source that are not given here.

Experiments:
[1] = test system: Staphylococcus aureus ATCC 25923; settings: values marked c, determined as previously described; cited from earlier work
Excerpt: Table 2 MIC and MBC of the peptides against bacteria. | column: MIC ^a (MBC ^b) (μM) / Gram-positive bacteria / S. aureus 25923

[2] = test system: fungi (four Candida strains); assay: Geometric mean MIC and selectivity index, panel of fungi; format: cell-based; settings: geometric mean of the MIC values against the fungi of Table 3
Excerpt: The antifungal activities were monitored in RPMI-1640 broth medium by a 2-fold microdilution assay according to the Clinical and Laboratory Standards Institute (CLSI) methods. The Candida albicans CGMCC 2.2086, Candida tropicalis CGMCC 2.1975, and Candida krusei CGMCC 2.1857 fungal strains were purchased from the China General Microbiological Culture Collection Center (CGMCC, Beijing, China). Clinically isolated Candida albicans CA2761 was provided by the 4th Affiliated Hospital of Harbin Medical University. Briefly, fungal strains were cultured on YPD agar plates (1% peptone, 0.5% yeast extract, 1% glucose and 2% agar) at 28 °C to prepare Candida suspensions with a turbidity of a 0.5 McFarland standard. A total of 50 μl inoculum cell suspension diluted in RPMI-1640 broth medium was added to an equal volume of peptide solution to achieve a final peptide concentrations ranging from 0.25 μM to 128 μM in a 96-well plate. Pure broth alone or with inoculum suspensions was used as the negative control or the positive control, respectively. The plate was incubated at 28 °C for 48 h. MIC was considered the lowest concentration at which no fungal growth was visually observed under experimental conditions. […]
SI values were determined by the ratio of MHC to GM, indicating the specificity of peptides towards pathogens and eukaryotic cells. […]

[3] = test system: C. albicans CA276 (clinical isolate); assay: microbe, parasite or virus in culture; format: cell-based, Candida albicans; settings: three independent experiments
Excerpt: (§1) The antifungal activities were monitored in RPMI-1640 broth medium by a 2-fold microdilution assay according to the Clinical and Laboratory Standards Institute (CLSI) methods. The Candida albicans CGMCC 2.2086, Candida tropicalis CGMCC 2.1975, and Candida krusei CGMCC 2.1857 fungal strains were purchased from the China General Microbiological Culture Collection Center (CGMCC, Beijing, China). Clinically isolated Candida albicans CA2761 was provided by the 4th Affiliated Hospital of Harbin Medical University. Briefly, fungal strains were cultured on YPD agar plates (1% peptone, 0.5% yeast extract, 1% glucose and 2% agar) at 28 °C to prepare Candida suspensions with a turbidity of a 0.5 McFarland standard. A total of 50 μl inoculum cell suspension diluted in RPMI-1640 broth medium was added to an equal volume of peptide solution to achieve a final peptide concentrations ranging from 0.25 μM to 128 μM in a 96-well plate. Pure broth alone or with inoculum suspensions was used as the negative control or the positive control, respectively. The plate was incubated at 28 °C for 48 h. MIC was considered the lowest concentration at which no fungal growth was visually observed under experimental conditions. […] After 48 h incubation at 28 °C, MFC was defined as the lowest concentration of peptides that killed at least 99.9% of the initial inoculums. Experiments were performed in triplicate with three biological replicates.

[4] = test system: Staphylococcus aureus ATCC 29213; format: cell-based; settings: lowest concentration killing at least 99.9% of initial inoculum; three independent experiments
Experimental: (§2) The peptide antibacterial activity was determined against both gram-positive and gram-negative bacteria strains, including Escherichia coli ATCC 25922, Escherichia coli UB1005, Salmonella enterica serovar typhimurium C77-31, Staphylococcus aureus ATCC 29213, Staphylococcus aureus ATCC 25923, Bacillus subtilis CMCC 63501, and Staphylococcus epidermidis ATCC 12228. Clinically isolated Escherichia coli EC183 was provided by the 4th Affiliated Hospital of Harbin Medical University. MIC of the peptides was measured using a modified version of the National Committee for Clinical Laboratory Standards (NCCLS) broth microdilution method as described previously. The bacterial strains were inoculated and grown to mid-log phase in fresh Mueller-Hinton broth (MHB) at 37 °C. Bacterial inoculum suspensions were prepared at a final concentration of approximately 1 × 10^5 CFU/ml. Peptides were 2-fold serially diluted to make different concentrations, from 0.5 to 256 μM. Equal volumes of inoculum suspensions were then added to each well of a sterile 96-well plate with different concentrations of peptides, and the plate was incubated for 18 h at 37 °C. Broth with or without bacteria was employed as the positive control or the negative control, respectively. MIC was defined as the lowest concentration of peptides that prevented visible turbidity by visual inspection. […] After overnight incubation at 37 °C, MBC was defined as the lowest concentration of peptides that killed at least 99.9% of the initial inoculums. Experiments were performed in triplicate with three biological replicates.

[5] = test system: Clinically isolated Escherichia coli EC183; format: cell-based; settings: three independent experiments
Experimental: as §2

[6] = test system: Escherichia coli ATCC 25922; format: cell-based; settings: lowest concentration killing at least 99.9% of initial inoculum; plated on MHA after MIC incubation; three independent experiments
Experimental: as §2

Escherichia coli UB1005 [7] = format: cell-based; settings: lowest concentration killing at least 99.9% of initial inoculum; three independent experiments
Experimental: as §2

[8] = test system: Bacillus subtilis CMCC 63501; format: cell-based; settings: lowest concentration killing at least 99.9% of initial inoculum; three independent experiments
Experimental: as §2

[9] = test system: Salmonella enterica serovar typhimurium C77-31; format: cell-based; settings: lowest concentration killing at least 99.9% of initial inoculum; three independent experiments
Experimental: as §2

[10] = test system: Salmonella enterica serovar typhimurium C77-31; settings: values marked c, determined as previously described; cited from earlier work
Excerpt: Table 2 MIC and MBC of the peptides against bacteria. | column: MIC ^a (MBC ^b) (μM) / Gram-negative bacteria / S. typhi C77-31

[11] = test system: Escherichia coli ATCC 25922; settings: values marked c, determined as previously described; cited from earlier work
Excerpt: Table 2 MIC and MBC of the peptides against bacteria. | column: MIC ^a (MBC ^b) (μM) / Gram-negative bacteria / E. coli 25922

[12] = test system: Staphylococcus aureus ATCC 29213; settings: values marked c, determined as previously described; cited from earlier work
Excerpt: Table 2 MIC and MBC of the peptides against bacteria. | column: MIC ^a (MBC ^b) (μM) / Gram-positive bacteria / S. aureus 29213

[13] = test system: Staphylococcus epidermidis ATCC 12228; settings: values marked c, determined as previously described; cited from earlier work
Excerpt: Table 2 MIC and MBC of the peptides against bacteria. | column: MIC ^a (MBC ^b) (μM) / Gram-positive bacteria / S. epidermidis 12228

[14] = test system: Candida albicans CGMCC 2.2086; assay: microbe, parasite or virus in culture; format: cell-based; settings: three independent experiments
Excerpt: as §1

[15] = test system: Candida krusei CGMCC 2.1857; assay: microbe, parasite or virus in culture; format: cell-based; settings: three independent experiments
Excerpt: as §1

[16] = test system: Candida tropicalis CGMCC 2.1975; assay: microbe, parasite or virus in culture; format: cell-based; settings: three independent experiments
Excerpt: as §1

Escherichia coli UB1005 [17] = settings: values marked c, determined as previously described; cited from earlier work
Excerpt: Table 2 MIC and MBC of the peptides against bacteria. | column: MIC ^a (MBC ^b) (μM) / Gram-negative bacteria / E. coli 1005

[18] = CLSI 2-fold microdilution, RPMI-1640, 28 °C for 48 h, visual
[19] = lowest concentration killing at least 99.9% of initial inoculum, YPD agar, 48 h at 28 °C

SMILES: CC[C@H](C)[C@H](NC(=O)CN)C(=O)NCC(=O)N[C@@H](C)C(=O)N[C@H](C(=O)N[C@@H](CC(C)C)C(=O)N[C@@H](CCCCN)C(=O)N[C@H](C(=O)N[C@@H](CC(C)C)C(=O)N[C@H](C(=O)N[C@H](C(=O)NCC(=O)N[C@@H](CC(C)C)C(=O)N1CCC[C@H]1C(=O)N[C@@H](C)C(=O)N[C@@H](CC(C)C)C(=O)N[C@H](C(=O)N[C@@H](CO)C(=O)N[C@@H](Cc1c[nH]c2ccccc12)C(=O)N[C@H](C(=O)N[C@@H](CCCCN)C(=O)N[C@@H](CCCNC(=N)N)C(=O)N[C@@H](CCCCN)C(=O)N[C@@H](CCCNC(=N)N)C(=O)N[C@@H](CCC(N)=O)C(=O)N[C@@H](CCC(N)=O)C(N)=O)[C@@H](C)CC)[C@@H](C)CC)[C@@H](C)O)[C@@H](C)O)C(C)C)C(C)C [melittin, reference compound]
- MIC S. aureus 25923 [1]: 8^c (8) μM
- GM (geometric mean of MIC values) Fungi [2]: 3.36 µM
- MIC [3, 18]: 8 µM (≈ 22.8 µg/mL)
- MFC [3, 19]: 16 µM (≈ 45.5 µg/mL)
- MBC S. aureus 29213 [4]: 16 µM (≈ 45.5 µg/mL)
- MIC E. coli EC183 ([5]; broth microdilution, MHB, ~1 × 10^5 CFU/ml, 18 h at 37 °C, visual): 2 µM (≈ 5.69 µg/mL)
- MBC E. coli EC183 ([5]; lowest concentration killing at least 99.9% of initial inoculum): 2 µM (≈ 5.69 µg/mL)
- MBC E. coli 25922 [6]: 4 µM (≈ 11.4 µg/mL)
- MBC E. coli 1005 (Escherichia coli UB1005 [7]): 4 µM (≈ 11.4 µg/mL)
- MBC B. subtilis 63501 [8]: 2 µM (≈ 5.69 µg/mL)
- MBC S. typhi C77-31 [9]: 2^c (2) μM
- MIC S. typhi C77-31 [10]: 2^c (2) μM
- MIC E. coli 25922 [11]: 2 µM (≈ 5.69 µg/mL)
- MIC S. aureus 29213 [12]: 8 µM (≈ 22.8 µg/mL)
- MIC S. epidermidis 12228 [13]: 0.5 µM (≈ 1.42 µg/mL)
- MIC [14, 18]: 4 µM (≈ 11.4 µg/mL)
- MFC [14, 19]: 8 µM (≈ 22.8 µg/mL)
- MIC [15, 18]: 2 µM (≈ 5.69 µg/mL)
- MFC [15, 19]: 4 µM (≈ 11.4 µg/mL)
- MIC C. tropicalis 2.1975 [16, 18]: 2 µM (≈ 5.69 µg/mL)
- MFC C. tropicalis 2.1975 [16, 19]: 2 µM (≈ 5.69 µg/mL)
- MIC E. coli 1005 (Escherichia coli UB1005 [17]): 2 µM (≈ 5.69 µg/mL)
